Where two headings read alike, the source gives them in different places.
Assays:
EGFR L858R/C797S = EGFR L858R/C797S (Homo sapiens, UniProt P00533, C797S/L858R); experiment: Biochemical EGFR kinase assay (Lance Ultra TR-FRET), double mutant L858R/C797S
Method in brief: (§1)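 In this biochemical assay, phosphorylation after a one-hour room-temperature reaction was detected with europium-labelled anti-phosphopeptide antibody at 2 nM final concentration.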

EGFR del19/C797S = EGFR del19/C797S (Homo sapiens, UniProt P00533, C797S/DEL746-750); experiment: Biochemical EGFR kinase assay (Lance Ultra TR-FRET), double mutant del19/C797S
Chain of EGFR del19/C797S (P00533 with tags, fused parts or gaps DEL746-750/C797S): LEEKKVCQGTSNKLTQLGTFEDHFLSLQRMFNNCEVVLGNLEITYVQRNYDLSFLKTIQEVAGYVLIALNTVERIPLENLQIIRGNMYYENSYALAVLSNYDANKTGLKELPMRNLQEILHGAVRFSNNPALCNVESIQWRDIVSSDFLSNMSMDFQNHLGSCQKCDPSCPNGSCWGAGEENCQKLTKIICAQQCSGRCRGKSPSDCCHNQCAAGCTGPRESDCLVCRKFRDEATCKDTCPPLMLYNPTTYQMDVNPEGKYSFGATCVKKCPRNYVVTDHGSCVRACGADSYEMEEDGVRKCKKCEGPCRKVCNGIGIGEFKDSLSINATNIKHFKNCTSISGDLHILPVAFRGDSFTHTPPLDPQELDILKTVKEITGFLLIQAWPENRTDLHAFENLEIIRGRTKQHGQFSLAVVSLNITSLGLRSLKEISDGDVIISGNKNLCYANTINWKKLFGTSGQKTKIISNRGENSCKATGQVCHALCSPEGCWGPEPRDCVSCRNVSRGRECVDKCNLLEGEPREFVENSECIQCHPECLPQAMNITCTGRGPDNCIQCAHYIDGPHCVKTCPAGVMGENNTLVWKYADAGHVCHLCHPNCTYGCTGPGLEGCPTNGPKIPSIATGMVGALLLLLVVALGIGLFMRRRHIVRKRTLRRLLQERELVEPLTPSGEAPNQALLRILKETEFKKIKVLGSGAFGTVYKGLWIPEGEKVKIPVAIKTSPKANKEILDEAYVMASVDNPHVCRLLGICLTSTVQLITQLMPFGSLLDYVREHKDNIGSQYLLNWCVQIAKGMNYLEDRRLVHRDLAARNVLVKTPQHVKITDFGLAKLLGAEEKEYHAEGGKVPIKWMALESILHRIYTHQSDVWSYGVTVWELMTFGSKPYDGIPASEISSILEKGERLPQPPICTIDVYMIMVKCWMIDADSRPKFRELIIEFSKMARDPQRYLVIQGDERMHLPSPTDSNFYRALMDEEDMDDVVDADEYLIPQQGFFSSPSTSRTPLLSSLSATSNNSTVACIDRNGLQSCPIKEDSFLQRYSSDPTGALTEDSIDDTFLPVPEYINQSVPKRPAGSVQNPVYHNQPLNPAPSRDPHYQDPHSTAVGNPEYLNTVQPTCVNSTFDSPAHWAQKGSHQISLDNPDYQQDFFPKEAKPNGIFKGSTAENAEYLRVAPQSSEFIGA
Method in brief: as §1

EGFR wildtype = EGFR wildtype (Homo sapiens, UniProt P00533); experiment: Biochemical EGFR kinase assay (Lance Ultra TR-FRET), wildtype
Method in brief: as §1

EGFR L858R/T790M/C797S = EGFR L858R/T790M/C797S (Homo sapiens, UniProt P00533, C797S/L858R/T790M); experiment: Biochemical EGFR kinase assay (Lance Ultra TR-FRET), triple mutant L858R/T790M/C797S
Chain of EGFR L858R/T790M/C797S (P00533 25-1210 T790M/C797S/L858R): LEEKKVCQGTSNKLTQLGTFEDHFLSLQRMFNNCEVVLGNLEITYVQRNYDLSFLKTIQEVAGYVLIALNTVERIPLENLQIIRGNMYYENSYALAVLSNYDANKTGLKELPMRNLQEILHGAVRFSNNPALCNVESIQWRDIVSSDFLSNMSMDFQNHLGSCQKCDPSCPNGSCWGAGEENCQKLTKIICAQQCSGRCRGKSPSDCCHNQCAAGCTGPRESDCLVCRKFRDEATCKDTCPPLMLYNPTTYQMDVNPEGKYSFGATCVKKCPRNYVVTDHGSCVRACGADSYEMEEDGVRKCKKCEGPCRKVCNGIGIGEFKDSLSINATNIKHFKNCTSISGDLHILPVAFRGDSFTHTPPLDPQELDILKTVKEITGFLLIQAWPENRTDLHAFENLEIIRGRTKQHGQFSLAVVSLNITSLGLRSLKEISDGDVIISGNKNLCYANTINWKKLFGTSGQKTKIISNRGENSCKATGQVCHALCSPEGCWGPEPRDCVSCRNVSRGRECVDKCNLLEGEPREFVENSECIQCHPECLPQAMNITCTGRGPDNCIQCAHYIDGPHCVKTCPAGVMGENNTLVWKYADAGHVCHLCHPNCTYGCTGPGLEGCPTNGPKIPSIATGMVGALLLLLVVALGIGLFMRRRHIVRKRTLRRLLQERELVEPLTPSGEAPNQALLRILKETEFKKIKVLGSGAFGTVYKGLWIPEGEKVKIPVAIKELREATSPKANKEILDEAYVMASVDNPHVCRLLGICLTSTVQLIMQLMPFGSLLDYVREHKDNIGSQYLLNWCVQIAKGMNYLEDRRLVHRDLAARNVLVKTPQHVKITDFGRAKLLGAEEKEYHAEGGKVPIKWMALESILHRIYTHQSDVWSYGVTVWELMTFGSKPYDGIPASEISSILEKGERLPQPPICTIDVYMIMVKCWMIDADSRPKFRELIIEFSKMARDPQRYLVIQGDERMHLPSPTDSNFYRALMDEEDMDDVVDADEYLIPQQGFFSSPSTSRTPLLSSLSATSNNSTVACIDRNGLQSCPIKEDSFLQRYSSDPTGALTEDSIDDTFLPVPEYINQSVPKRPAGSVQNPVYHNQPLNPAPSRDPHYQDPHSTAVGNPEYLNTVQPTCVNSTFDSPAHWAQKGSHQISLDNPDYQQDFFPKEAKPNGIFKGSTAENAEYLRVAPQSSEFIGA
Method in brief: as §1

EGFR del19/T790M/C797S = EGFR del19/T790M/C797S (Homo sapiens, UniProt P00533, C797S/DEL746-750/T790M); experiment: Biochemical EGFR kinase assay (Lance Ultra TR-FRET), triple mutant del19/T790M/C797S
Chain of EGFR del19/T790M/C797S (P00533 with tags, fused parts or gaps DEL746-750/T790M/C797S): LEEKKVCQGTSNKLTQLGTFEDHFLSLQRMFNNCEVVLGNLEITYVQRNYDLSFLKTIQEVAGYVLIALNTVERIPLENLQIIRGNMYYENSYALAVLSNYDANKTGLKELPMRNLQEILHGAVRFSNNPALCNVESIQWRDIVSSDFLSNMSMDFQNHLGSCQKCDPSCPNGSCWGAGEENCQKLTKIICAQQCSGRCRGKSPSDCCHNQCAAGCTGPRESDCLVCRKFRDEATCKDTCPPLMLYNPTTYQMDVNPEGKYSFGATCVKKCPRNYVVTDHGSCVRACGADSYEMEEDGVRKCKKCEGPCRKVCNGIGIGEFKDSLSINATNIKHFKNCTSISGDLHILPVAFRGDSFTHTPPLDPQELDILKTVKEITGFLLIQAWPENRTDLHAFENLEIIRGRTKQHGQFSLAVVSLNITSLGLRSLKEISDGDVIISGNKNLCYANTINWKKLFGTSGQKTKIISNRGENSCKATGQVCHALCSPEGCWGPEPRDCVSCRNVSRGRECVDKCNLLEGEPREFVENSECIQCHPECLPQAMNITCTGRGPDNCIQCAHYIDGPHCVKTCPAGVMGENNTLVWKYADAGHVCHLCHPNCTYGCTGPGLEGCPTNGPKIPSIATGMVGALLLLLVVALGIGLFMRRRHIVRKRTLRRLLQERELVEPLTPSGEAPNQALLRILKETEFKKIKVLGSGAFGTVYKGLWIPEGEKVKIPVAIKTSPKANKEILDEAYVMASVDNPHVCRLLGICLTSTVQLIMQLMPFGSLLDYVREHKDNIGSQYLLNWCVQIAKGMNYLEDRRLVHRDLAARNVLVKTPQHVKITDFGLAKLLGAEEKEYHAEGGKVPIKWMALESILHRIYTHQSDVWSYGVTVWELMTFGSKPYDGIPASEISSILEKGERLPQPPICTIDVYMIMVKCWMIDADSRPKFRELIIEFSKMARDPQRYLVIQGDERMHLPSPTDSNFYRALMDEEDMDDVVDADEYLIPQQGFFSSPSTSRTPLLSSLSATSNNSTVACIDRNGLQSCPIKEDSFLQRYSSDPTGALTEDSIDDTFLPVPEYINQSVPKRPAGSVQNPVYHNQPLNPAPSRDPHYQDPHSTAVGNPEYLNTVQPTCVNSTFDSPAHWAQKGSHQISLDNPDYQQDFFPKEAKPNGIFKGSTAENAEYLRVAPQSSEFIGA
Method in brief: as §1

[1] = ATP at Km, read-out: IC50 L858R/C797S, Km ATP
[2] = ATP at Km, read-out: IC50 del19/C797S, Km ATP
[3] = ATP at Km, read-out: IC50 L858R/T790M/C797S, Km ATP
[4] = IC50 L858R/T790M/C797S, 100 μM ATP
[5] = ATP at Km, read-out: IC50 del19/T790M/C797S, Km ATP
[6] = IC50 del19/T790M/C797S, 100 μM ATP
[7] = IC50 L858R/C797S (nM) 100 μM ATP, 100 μM ATP
[8] = Km ATP, read-out: IC50 L858R/C797S (nM) Km ATP
[9] = Km ATP, read-out: IC50 del19/C797S (nM) Km ATP
[10] = IC50 WT (nM) 100 μM ATP, 100 μM ATP
[11] = IC50 L858R/T790M/C797S (nM) 100 μM ATP, 100 μM ATP
[12] = Km ATP, read-out: IC50 L858R/T790M/C797S (nM) Km ATP
[13] = IC50 del19/T790M/C797S (nM) 100 μM ATP, 100 μM ATP
[14] = Km ATP, read-out: IC50 del19/T790M/C797S (nM) Km ATP
[15] = IC50 del19/C797S (nM) 100 μM ATP, 100 μM ATP
[16] = Km ATP, read-out: IC50 WT (nM) Km ATP
[17] = ATP at Km, read-out: IC50 WT, Km ATP

Chain of EGFR L858R/C797S (P00533 25-1210 C797S/L858R): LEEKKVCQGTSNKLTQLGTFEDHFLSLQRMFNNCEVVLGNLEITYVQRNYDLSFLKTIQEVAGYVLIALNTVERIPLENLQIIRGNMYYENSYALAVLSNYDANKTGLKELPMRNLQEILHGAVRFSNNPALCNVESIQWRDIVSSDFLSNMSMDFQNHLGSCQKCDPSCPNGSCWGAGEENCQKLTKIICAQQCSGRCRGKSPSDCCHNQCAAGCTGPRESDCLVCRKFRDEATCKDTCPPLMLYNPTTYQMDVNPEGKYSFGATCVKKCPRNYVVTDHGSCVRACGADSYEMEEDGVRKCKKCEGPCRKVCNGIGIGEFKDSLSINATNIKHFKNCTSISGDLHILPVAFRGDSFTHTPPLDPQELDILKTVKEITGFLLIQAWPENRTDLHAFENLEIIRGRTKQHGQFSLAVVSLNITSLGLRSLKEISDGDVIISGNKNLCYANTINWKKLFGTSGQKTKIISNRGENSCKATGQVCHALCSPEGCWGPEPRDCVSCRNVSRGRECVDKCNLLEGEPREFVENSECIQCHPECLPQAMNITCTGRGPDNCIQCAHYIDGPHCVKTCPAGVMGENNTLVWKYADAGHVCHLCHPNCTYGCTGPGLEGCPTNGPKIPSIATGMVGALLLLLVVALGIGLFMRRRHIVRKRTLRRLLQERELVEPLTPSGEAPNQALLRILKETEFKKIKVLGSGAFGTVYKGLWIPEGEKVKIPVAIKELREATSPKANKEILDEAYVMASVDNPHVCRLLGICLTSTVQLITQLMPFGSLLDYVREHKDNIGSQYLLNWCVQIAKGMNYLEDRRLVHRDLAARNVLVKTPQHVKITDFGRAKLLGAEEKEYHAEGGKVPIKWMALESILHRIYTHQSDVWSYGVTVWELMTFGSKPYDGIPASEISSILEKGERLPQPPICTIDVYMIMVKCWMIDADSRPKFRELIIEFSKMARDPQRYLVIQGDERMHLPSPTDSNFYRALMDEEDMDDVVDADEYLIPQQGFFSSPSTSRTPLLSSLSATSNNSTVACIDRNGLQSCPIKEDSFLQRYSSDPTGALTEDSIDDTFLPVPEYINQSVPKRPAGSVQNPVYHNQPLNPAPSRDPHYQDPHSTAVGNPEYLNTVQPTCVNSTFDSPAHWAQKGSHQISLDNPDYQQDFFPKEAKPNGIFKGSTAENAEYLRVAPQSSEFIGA

Structure (SMILES) | IC50 (EGFR L858R/C797S; [1]) [nM] | IC50 (EGFR L858R/C797S; IC50 L858R/C797S, 100 μM ATP) [nM] | IC50 (EGFR del19/C797S; [2]) [nM] | IC50 (EGFR del19/C797S; IC50 del19/C797S, 100 μM ATP) [nM] | IC50 (EGFR wildtype; IC50 WT, 100 μM ATP) [nM] | IC50 (EGFR L858R/T790M/C797S; [3]) [nM] | IC50 (EGFR L858R/T790M/C797S; [4]) [nM] | IC50 (EGFR del19/T790M/C797S; [5]) [nM] | IC50 (EGFR del19/T790M/C797S; [6]) [nM] | IC50 (EGFR L858R/C797S; [7]) [nM] | IC50 (EGFR L858R/C797S; [8]) [nM] | IC50 (EGFR del19/C797S; [9]) [nM] | IC50 (EGFR wildtype; [10]) [nM] | IC50 (EGFR L858R/T790M/C797S; [11]) [nM] | IC50 (EGFR L858R/T790M/C797S; [12]) [nM] | IC50 (EGFR del19/T790M/C797S; [13]) [nM] | IC50 (EGFR del19/T790M/C797S; [14]) [nM] | IC50 (EGFR del19/C797S; [15]) [nM] | IC50 (EGFR wildtype; [16]) [nM] | IC50 (EGFR wildtype; [17]) [nM]
CN1CCC(Oc2cccc(-c3cnc(Nc4ccnc(-c5cnn(S(=O)(=O)C6CC6)c5)n4)cc3N[C@H]3CC[C@@](C)(O)CC3)n2)CC1 [Example 286, (1s,4s)-4-((6′-((2-(1-(Cyclopropylsulfonyl)-1H-pyrazol-4-yl)pyrimidin-4-yl)amino)-6-((1-methylpiperidin-4-yl)oxy)-[2,3′-bipyridin]-4′-yl)amino)-1-methylcyclohexan-1-ol] | 0.1 | 2.5 | 0.3 | 0.3 | 735 | 0.1 | 0.3 | 0.2 | 0.3 |  |  |  |  |  |  |  |  |  |  | 
Cc1cc(-c2cnc(Nc3ccnc(-c4cnn(S(=O)(=O)C5CC5)c4)n3)cc2N[C@H]2CC[C@@](C)(O)CC2)nnc1C [Example 50, (1s,4s)-4-((2-((2-(1-(Cyclopropylsulfonyl)-1H-pyrazol-4-yl)pyrimidin-4-yl)amino)-5-(5,6-dimethylpyridazin-3-yl)pyridin-4-yl)amino)-1-methylcyclohexan-1-ol] |  |  |  |  |  |  |  |  |  | 2.2 | 0.4 | 0.5 | > 10000 | 0.1 | 0.1 | 0.2 | 0.3 |  |  | 
CN1CCN(c2ccc(-c3cnc(Nc4ccnc(-c5cnn(S(=O)(=O)C6CC6)c5)n4)cc3N[C@H]3CC[C@@H](C(C)(C)O)CC3)nc2)CC1 [Example 84, 2-((1s,4s)-4-((6′-((2-(1-(Cyclopropylsulfonyl)-1H-pyrazol-4-yl)pyrimidin-4-yl)amino)-5-(4-methylpiperazin-1-yl)-[2,3′-bipyridin]-4′-yl)amino)cyclohexyl)propan-2-ol] |  |  |  |  |  |  |  |  |  | 0.5 | 0.2 | 0.4 | 181 | 0.5 | 0.3 | 0.7 | 0.9 | 0.6 | 0.6 | 
O=S(=O)(C1CC1)n1cc(-c2nccc(Nc3cc(N[C@H]4CC[C@H](CCO)CC4)c(-c4ccc(C(F)F)cn4)cn3)n2)cn1 [Example 95, 2-((1r,4r)-4-((6′-((2-(1-(Cyclopropylsulfonyl)-1H-pyrazol-4-yl)pyrimidin-4-yl)amino)-5-(difluoromethyl)-[2,3′-bipyridin]-4′-yl)amino)cyclohexyl)ethan-1-ol] |  |  |  |  |  |  |  |  |  | 9160 | 8480 | 66.9 | > 10000 | 2 | 0.9 | 5.6 | 2.5 | 1540 | 222 | 
COC1CN(c2ccc(-c3cnc(Nc4ccnc(-c5cnn(S(=O)(=O)C6CC6)c5)n4)cc3N[C@H]3CC[C@@H](C(C)(C)O)CC3)nc2)C1 [Example 92, 2-((1s,4s)-4-((6′-((2-(1-(Cyclopropylsulfonyl)-1H-pyrazol-4-yl)pyrimidin-4-yl)amino)-5-(3-methoxyazetidin-1-yl)-[2,3′-bipyridin]-4′-yl)amino)cyclohexyl)propan-2-ol] |  |  |  |  |  |  |  |  |  | 78.8 | 4.7 | 4.4 | 172 | 2.3 | 1.4 | 1.6 | 1 | 7.2 | 0.1 | 
CN1CCC(Oc2ccc(-c3cnc(Nc4ccnc(-c5cnn(S(=O)(=O)C6CC6)c5)n4)cc3N[C@H]3CC[C@@H](F)CC3)nn2)CC1 [Example 270, N^2-(2-(1-(Cyclopropylsulfonyl)-1H-pyrazol-4-yl)pyrimidin-4-yl)-N^4-((1s,4s)-4-fluorocyclohexyl)-5-(6-((1-methylpiperidin-4-yl)oxy)pyridazin-3-yl)pyridine-2,4-diamine] | 1.1 |  | 3.2 |  |  | 0.1 |  | 0.3 |  |  |  |  |  |  |  |  |  |  |  | 36
C[C@]1(O)CC[C@@H](Nc2cc(Nc3ccnc(-c4cnn(S(=O)(=O)C5CC5)c4)n3)ncc2-c2cc(C(F)F)ccn2)CC1 [Example 76, (1s,4s)-4-((6′-((2-(1-(Cyclopropylsulfonyl)-1H-pyrazol-4-yl)pyrimidin-4-yl)amino)-4-(difluoromethyl)-[2,3′-bipyridin]-4′-yl)amino)-1-methylcyclohexan-1-ol] |  |  |  |  |  |  |  |  |  | 14.5 | 2.1 | 1.6 | > 10000 | 0.8 | 0.9 | 1 | 2 | 2 | 8.1 | 
O=S(=O)(C1CC1)n1cc(-c2nccc(Nc3cc(NC4CCC(F)CC4)c(-c4cnc(OC5CCOC5)cn4)cn3)n2)cn1 (stereo not shown) [Example 152, N^2-(2-(1-(Cyclopropylsulfonyl)-1H-pyrazol-4-yl)pyrimidin-4-yl)-N^4-((1s,4s)-4-fluorocyclohexyl)-5-(5-((tetrahydrofuran-3-yl)oxy)pyrazin-2-yl)pyridine-2,4-diamine] | 13.1 |  | 214 |  |  | 0.1 |  | 0.5 |  |  |  |  |  |  |  |  |  |  |  | > 10000
CN(C)C[C@H]1CC[C@@H](Nc2cc(Nc3ccnc(-c4cnn(S(=O)(=O)C5CC5)c4)n3)ncc2-c2ccc(C(C)(C)O)nn2)CC1 [Example 89, 2-(6-(6-((2-(1-(Cyclopropylsulfonyl)-1H-pyrazol-4-yl)pyrimidin-4-yl)amino)-4-(((1s,4s)-4-((dimethylamino)methyl)cyclohexyl)amino)pyridin-3-yl)pyridazin-3-yl)propan-2-ol] |  |  |  |  |  |  |  |  |  | 3.9 | 0.2 | 0.3 | 1640 | 0.1 | 0.1 | 0.1 | 0.1 | 0.1 | 2.7 | 
CC(C)(O)[C@H]1CC[C@@H](Nc2cc(Nc3ccnc(-c4cnn(S(=O)(=O)C5CC5)c4)n3)ncc2-c2ccc(OC(F)(F)F)cn2)CC1 [Example 196, 2-((1s,4s)-4-((6′-((2-(1-(Cyclopropylsulfonyl)-1H-pyrazol-4-yl)pyrimidin-4-yl)amino)-5-(trifluoromethoxy)-[2,3′-bipyridin]-4′-yl)amino)cyclohexyl)propan-2-ol] |  | > 10000 |  | 135 | > 10000 |  | 9.5 |  | 14.7 |  |  |  |  |  |  |  |  |  |  | 
CN(C)c1ccnc(-c2cnc(Nc3ccnc(-c4cnn(S(=O)(=O)C5CC5)c4)n3)cc2N[C@H]2CC[C@@](C)(O)CC2)c1 [Example 167, (1s,4s)-4-((6′-((2-(1-(Cyclopropylsulfonyl)-1H-pyrazol-4-yl)pyrimidin-4-yl)amino)-4-(dimethylamino)-[2,3′-bipyridin]-4′-yl)amino)-1-methylcyclohexan-1-ol] |  | 52.2 |  | 45.8 | > 10000 |  | 3.5 |  | 2.7 |  |  |  |  |  |  |  |  |  |  | 
COc1c(F)ccnc1-c1cnc(Nc2ccnc(-c3cnn(S(=O)(=O)C4CC4)c3)n2)cc1N[C@H]1CC[C@@](C)(O)CC1 [Example 335, (1s,4s)-4-((6′-((2-(1-(Cyclopropylsulfonyl)-1H-pyrazol-4-yl)pyrimidin-4-yl)amino)-4-fluoro-3-methoxy-[2,3′-bipyridin]-4′-yl)amino)-1-methylcyclohexan-1-ol] |  |  |  |  |  |  |  |  |  |  | 1780 | 1840 |  |  | 2.6 |  | 5.8 |  | 248 | 
Cc1ccnc(-c2cnc(Nc3ccnc(-c4cnn(S(=O)(=O)C5CC5)c4)n3)cc2N[C@H]2CC[C@@](C)(O)CC2)c1 [Example 12, (1s,4s)-4-((6′-((2-(1-(Cyclopropylsulfonyl)-1H-pyrazol-4-yl)pyrimidin-4-yl)amino)-4-methyl-[2,3′-bipyridin]-4′-yl)amino)-1-methylcyclohexan-1-ol] |  |  |  |  |  |  |  |  |  | 11.5 |  | 0.4 | 2690 | 0.6 | 0.2 | 0.4 |  | 1 | 3.6 | 
C[C@]1(O)CC[C@@H](Nc2cc(Nc3ccnc(-c4cnn(S(=O)(=O)C5CC5)c4)n3)ncc2-c2ccc(N3CCC(F)(F)CC3)cn2)CC1 [Example 47, (1s,4s)-4-((6′-((2-(1-(Cyclopropylsulfonyl)-1H-pyrazol-4-yl)pyrimidin-4-yl)amino)-5-(4,4-difluoropiperidin-1-yl)-[2,3′-bipyridin]-4′-yl)amino)-1-methylcyclohexan-1-ol] |  |  |  |  |  |  |  |  |  | 17.7 | 7.9 | 3.2 | > 10000 | 3 | 1 |  | 2 | 4.2 | 7.1 | 

— US12258328B2, “6-membered heteroaryl-containing aminopyridine compounds as EGFR inhibitors” (YUHAN CORPORATION, priority 2021, dated 2025)
